Patent publication EP0048954A2, “Beta-lactam compounds, process for the preparation thereof and intermediate products for the preparation thereof” (SAGAMI CHEMICAL RESEARCH CENTER, priority 1980, dated 1982)
≈ marks a conversion by molar mass, not a printed value. Structures can show the parent of a compound that is named as a salt. Where two headings read alike, the source gives them in different places.

Tests used:
Experiment in all cases: Antibacterial activity, minimum inhibition concentration (method of The Chemotherapy Association, Japan)
Format in all cases: cell-based
[1] = system: Proteus rettgeri NIH-96; conditions: Providencia rettgeri
Description: (§1) The abbreviations A to P will be used in the following Tables 2 to 8.
(§2) Test results are shown in terms of the minimum inhibition concentration (µg/mℓ.) in the following Tables 2 to 8.

[2] = system: Proteus vulgaris OX-19; conditions: Proteus vulgaris
Description: as §1, §2

[3] = system: Enterobactor cloacae NCTC-9394; conditions: strain N: Enterobactor cloacae NCTC-9394; read-out: minimum inhibition concentration
Method in brief: (§3)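 Compounds were tested against each strain using the Chemotherapy Association of Japan MIC protocol, and the minimum inhibition concentration was recorded in µg/mℓ.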

[4] = system: Escherichia coli NIHJ; conditions: Escherichia coli, strain K: Escherichia coli NIHJ; read-out: minimum inhibition concentration
Method in brief: as §3

[5] = system: Proteus inconstans NIH-118; conditions: Providencia alcalifaciens
Method in brief: as §3

[6] = system: Pseudomonas aeruginosa NCTC-10490; conditions: Pseudomonas aeruginosa
Method in brief: as §3

[7] = system: Staphylococcus aureus 6538-P
Method in brief: as §3

[8] = system: Bacillus subtilis ATCC 6633; conditions: Bacillus subtilis, ATCC6633, strain B: Bacillus subtilis ATCC 6633; read-out: minimum inhibition concentration
Method in brief: as §3

[9] = system: Citrobactor freundii NIH-10018 -68; conditions: strain O: Citrobactor freundii NIH-10018 -68; read-out: minimum inhibition concentration
Method in brief: as §3

[10] = system: Escherichia coli NIHJC-2; conditions: Escherichia coli, NIHJC2, strain L: Escherichia coli NIHJC-2; read-out: minimum inhibition concentration
Method in brief: as §3

[11] = system: Klebsiella pneumoniae; conditions: Klebsiella pneumoniae, strain C: Klebsiella pneumoniae; read-out: minimum inhibition concentration
Method in brief: as §3

[12] = system: Proteus mirabillis B-30-2 IFO-3849; conditions: strain G: Proteus mirabillis B-30-2 IFO-3849; read-out: minimum inhibition concentration
Method in brief: as §3

[13] = system: Proteus morgani Kono; conditions: strain J: Proteus morgani Kono; read-out: minimum inhibition concentration
Method in brief: as §3

[14] = system: Salmonella typhimurium 3173; conditions: Salmonella enterica, TYPHIMURIUM, strain D: Salmonella typhimurium 3173; read-out: minimum inhibition concentration
Method in brief: as §3

[15] = system: Serratia marcescens 1023; conditions: Serratia marcescens, 1023, strain E: Serratia marcescens 1023; read-out: minimum inhibition concentration
Method in brief: as §3

[16] = system: Serratia marcescens IFO-3736; conditions: Serratia marcescens, IFO3736, strain F: Serratia marcescens IFO-3736; read-out: minimum inhibition concentration
Method in brief: as §3

[17] = NIH96, strain I: Proteus rettgeri NIH-96, read-out: minimum inhibition concentration
[18] = OX19, strain H: Proteus vulgaris OX-19, read-out: minimum inhibition concentration
[19] = NIH118, strain P: Proteus inconstans NIH-118, read-out: minimum inhibition concentration
[20] = NCTC10490, strain M: Pseudomonas aeruginosa NCTC-10490, read-out: minimum inhibition concentration
[21] = strain A: Staphylococcus aureus 6538-P, read-out: minimum inhibition concentration

Structure (SMILES)	MIC [1, 17] [µg/mL]	MIC [2, 18] [µg/mL]	MIC [3] [µg/mL]	MIC [4] [µg/mL]	MIC [5, 19] [µg/mL]	MIC [6, 20] [µg/mL]	MIC [7, 21] [µg/mL]	also measured
CC(=O)OCC1=C(C(=O)O)N2C(=O)C(NC(=O)C(=C(Cl)Cl)c3ccsc3)[C@H]2SC1 (stereo partly shown) [Compound 40, 7-[2-dichloromethylene-2-(3-thienyl)acetamido]-3-acetoxymethyl-3-cephem-4-carboxylic acid]	0.39 (≈ 0.817 µM)	25 (≈ 52.4 µM)	100 (≈ 209 µM)	1.56 (≈ 3.27 µM)	25 (≈ 52.4 µM)	25 (≈ 52.4 µM)	0.39 (≈ 0.817 µM)	–
CC(=O)OCC1=C(C(=O)O)N2C(=O)C(NC(=O)Cc3cccs3)C2SC1 (stereo not shown) [Cephalo-thin Na salt, reference compound]	–	–	> 100	25	–	–	–	MIC ([1]; NIH96, read-out: minimum inhibition concentration, strain I: Proteus rettgeri NIH-96): > 100 µg/mL; MIC ([2]; OX19, read-out: minimum inhibition concentration, strain H: Proteus vulgaris OX-19): > 100 µg/mL; MIC ([5]; NIH118, read-out: minimum inhibition concentration): > 100 µg/mL; MIC ([6]; NCTC10490, read-out: minimum inhibition concentration): > 100 µg/mL; MIC ([7]; Staphylococcus aureus, 6538P, read-out: minimum inhibition concentration, strain A: Staphylococcus aureus 6538-P): 0.1 µg/mL
CC(=O)OCC1=C(C(=O)O)N2C(=O)C(NC(=O)C(=C(Cl)Cl)c3cccs3)[C@H]2SC1 (stereo partly shown) [Compound 41, 7-[2-dichloromethylene-2-(2-thienyl)acetamido]-3-acetoxymethyl-3-cephem-4-carboxylic acid]	50 (≈ 105 µM)	0.39 (≈ 0.817 µM)	50 (≈ 105 µM)	0.39 (≈ 0.817 µM)	1.56 (≈ 3.27 µM)	25 (≈ 52.4 µM)	0.2 (≈ 0.419 µM)	–
Cn1nnnc1SCC1=C(C(=O)O)N2C(=O)C(NC(=O)C(=C(Cl)Cl)c3cccs3)C2SC1 (stereo not drawn) [Compound 39, 7-[2-dichloromethylene-2-(2-thienyl)acetamido]-3-(l-methyl-lH-tetrazol-5-yl)thiomethyl-3-cephem-4-carboxylic acid]	0.05 (≈ 0.0937 µM)	50 (≈ 93.7 µM)	12.5 (≈ 23.4 µM)	0.39 (≈ 0.731 µM)	3.12 (≈ 5.86 µM)	6.25 (≈ 11.7 µM)	0.2 (≈ 0.375 µM)	–
Cn1nnnc1SCC1=C(C(=O)O)N2C(=O)C(NC(=O)C(=CCl)c3csc(N)n3)C2SC1 (stereo not shown) [11-(3), 7-[2-chloromethylene-2-(2-aminothiazol-4-yl)-acetamido]-3-(1-methyl-lH-tetrazol-5-yl)thiomethyl-3-cephem-4-carboxylic acid sodium salt]	< 0.00625	0.025	0.2	< 0.00625	–	1.56	0.39	MIC [8]: 3.12 µg/mL; MIC [9]: 0.78 µg/mL; MIC [10]: 0.78 µg/mL; MIC [11]: 0.78 µg/mL; MIC [12]: 0.39 µg/mL; MIC [13]: 0.2 µg/mL; MIC [14]: 0.78 µg/mL; MIC [15]: 6.25 µg/mL; MIC [16]: 0.78 µg/mL
